The text below walks through data of patent US10363239B2, “Method for inhibiting growth of cancer cells” (Pain Therapeutics, Inc., priority 2013, dated 2019).

Experiment [1] deals with FLNA pentapeptide of SEQ ID NO: 1 (Bn-VAKGL) (Homo sapiens, UniProt P21333). Kind of experiment: FITC-NLX-based FLNA screening assay (inhibition of FITC-naloxone binding to Bn-VAKGL on streptavidin plates). The settings on record: 10 nM FITC-NLX.
Another experiment concerns mu opiate receptor (MOR). As to the kind of experiment: MOR agonist activity using [35S]GTPγS binding assay in striatal membranes. The class given is biochemical. Summed up:
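Striatal membranes (200 μg) were preincubated 5 min at 30 °C in HEPES pH 7.5 with 100 mM NaCl, 1 mM MgCl2 and 0.5 nM [35S]GTPγS, then 5 min more with 0.1–10 μM compound. Gαo was immunoprecipitated and bound radioactivity counted by scintillation.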
A general note: GTPγS resists hydrolysis and so accumulates on activated G proteins.

The mark [2] stands for this setting: read-out: Percent Binding Inhibition, FLNA-binding compound 0.01 μM.
The mark [3] stands for this setting: read-out: Percent Binding Inhibition, FLNA-binding compound 0.1 μM.
Where [4] appears, read: read-out: Percent Binding Inhibition, FLNA-binding compound 1 μM.
[5] abbreviates: Series B, 0.1 μM compound, relative to DAMGO.
[6] abbreviates: Series B, 0.1 μM compound, [35S]GTPγS binding to Gαo, striatal membranes.
Setting [7] is: Series B, 1 μM compound + 1 μM β-FNA.
Where [8] appears, read: Series B, 1 μM compound + β-FNA, relative to DAMGO + BFNA.
Setting [9] is: Series B, 1 μM compound, relative to DAMGO.
Setting [10] is: Series B, 1 μM compound, [35S]GTPγS binding to Gαo, striatal membranes.
The mark [11] stands for this setting: Series C-1, 0.1 μM compound, relative to DAMGO.
The mark [12] stands for this setting: Series C-1, 0.1 μM compound, [35S]GTPγS binding to Gαo, striatal membranes.
The mark [13] stands for this setting: Series C-1, 1 μM compound + 1 μM β-FNA.
[14] abbreviates: Series C-1, 1 μM compound + β-FNA, relative to DAMGO + BFNA.
Where [15] appears, read: Series C-1, 1 μM compound, relative to DAMGO.
Setting [16] is: Series C-1, 1 μM compound, [35S]GTPγS binding to Gαo, striatal membranes.

Read-outs that look alike come from different tables or passages of the source.

The inhibition is the drop in the measured response relative to a control, in per cent. `COc1c2c(cc3c1C(CC(=O)Cc1ccccc1C)[N+](C)(C)CC3)OCO2` (stereo not drawn) [Compound B0031]: the inhibition at 0.01 µM in experiment [1] (setting [2]) is 36.2%. In experiment [1] (setting [3]), the inhibition at 0.1 µM amounted to 44.2%. In addition, the inhibition at 1 µM in experiment [1] (setting [4]) turned out to be 50.5%. Besides, the “% DAMGO (0.1 μM)” value in the experiment with mu opiate receptor (MOR) (setting [5]) is given as 109.6%. For the same compound, the results for the “MOR agonist activity, percent [35S]GTPγS binding at the stated compound concentration” value (“MOR agonist activity, percent” for short) in the experiment on mu opiate receptor (MOR) (setting [6]), in the experiment with mu opiate receptor (MOR) (setting [7]) and in the experiment with mu opiate receptor (MOR) (setting [10]) were 210.8%, 28.8% and 272.0%, respectively. Also, in the experiment with mu opiate receptor (MOR) (setting [8]), the “% DAMGO + BFNA” value was found to be 65.6%. In addition, the “% DAMGO (1 μM)” value in the experiment with mu opiate receptor (MOR) (setting [9]) was 99.6%.

Turning to `COc1ccccc1C(=O)CC1c2c(cc3c(c2OC)OCO3)CC[N+]1(C)C` (stereo not drawn) [Compound B0025], in experiment [1] (setting [2]), the inhibition at 0.01 µM was determined as 41.7%. Also, in experiment [1] (setting [3]), the inhibition at 0.1 µM turned out to be 49.4%. For the same compound, the inhibition at 1 µM in experiment [1] (setting [4]) turned out to be 56.6%. The “% DAMGO (0.1 μM)” value in the experiment with mu opiate receptor (MOR) (setting [5]) amounted to 96.3%. Besides, the “MOR agonist activity, percent” value in the experiment with mu opiate receptor (MOR) (setting [6]) is listed as 159.6%; with mu opiate receptor (MOR) (setting [7]) it was 137.7%; with mu opiate receptor (MOR) (setting [10]), 234.6%. Moreover, the “% DAMGO + BFNA” value in the experiment on mu opiate receptor (MOR) (setting [8]) amounted to 211.8%. Also, the “% DAMGO (1 μM)” value with mu opiate receptor (MOR) (setting [9]) turned out to be 86.8%.

As for `COc1ccc(NC(=O)N2CCC3(CC2)OCCN3C(=O)Nc2ccc(OC)cc2)cc1` [Compound C0151M], in experiment [1] (setting [2]), the inhibition at 0.01 µM amounted to 48.3%. Further, in experiment [1] (setting [3]), the inhibition at 0.1 µM turned out to be 51.7%. Moreover, the inhibition at 1 µM in experiment [1] (setting [4]) came to 58.7%. In addition, in the experiment with mu opiate receptor (MOR) (setting [11]), the “% DAMGO (0.1 μM)” value came out at 201.6%. The “Concentration of FLNA-Binding Compound as Agonist 0.1 μM” value in the experiment with mu opiate receptor (MOR) (setting [12]) was 346.8%. Besides, in the experiment on mu opiate receptor (MOR) (setting [13]), the “Concentration of FLNA-Binding Compound as Agonist 1 μM + BFNA” value was 212.8%. Besides, the “% DAMGO + BFNA” value in the experiment on mu opiate receptor (MOR) (setting [14]) worked out at 233.1%. Besides, the “% DAMGO (1 μM)” value in the experiment with mu opiate receptor (MOR) (setting [15]) is on record as 122.0%. For the same compound, the “Concentration of FLNA-Binding Compound as Agonist 1 μM” value with mu opiate receptor (MOR) (setting [16]) amounted to 397.6%.

With `O=S(=O)(c1ccc(Oc2ccccc2)cc1)N1CCC2(CC1)OCCN2S(=O)(=O)c1ccc(Oc2ccccc2)cc1` [Compound C0149M], the inhibition at 0.01 µM in experiment [1] (setting [2]) was 48.5%. Moreover, the inhibition at 0.1 µM in experiment [1] (setting [3]) was determined as 52.3%. Also, the inhibition at 1 µM in experiment [1] (setting [4]) worked out at 62%. Moreover, the “% DAMGO (0.1 μM)” value with mu opiate receptor (MOR) (setting [11]) came out at 122.0%. Further, in the experiment with mu opiate receptor (MOR) (setting [12]), the “Concentration of FLNA-Binding Compound as Agonist 0.1 μM” value came out at 209.8%. The “Concentration of FLNA-Binding Compound as Agonist 1 μM + BFNA” value in the experiment on mu opiate receptor (MOR) (setting [13]) is 93.4%. The “% DAMGO + BFNA” value in the experiment with mu opiate receptor (MOR) (setting [14]) is given as 102.3%. Moreover, the “% DAMGO (1 μM)” value in the experiment on mu opiate receptor (MOR) (setting [15]) turned out to be 124.8%. Also, in the experiment on mu opiate receptor (MOR) (setting [16]), the “Concentration of FLNA-Binding Compound as Agonist 1 μM” value stood at 406.7%.

As to `CC1CCC(C(C)C)C(OCC(O)CN2CCCN(C)CC2)C1` (stereo not drawn) [Compound A0010], the inhibition at 0.01 µM in experiment [1] (FLNA-binding compound 0.01 μM, read-out: Percent Binding Inhibition) came out at 36%. For the same compound, the inhibition at 0.1 µM in experiment [1] (FLNA-binding compound 0.1 μM, read-out: Percent Binding Inhibition) came out at 36.5%. Further, the inhibition at 1 µM in experiment [1] (FLNA-binding compound 1 μM, read-out: Percent Binding Inhibition) was 39%. The “MOR agonist activity ([35S]GTPγS binding), FLNA-Binding Compound as Agonist 0.1 μM” value in the experiment on mu opiate receptor (MOR) (0.1 μM compound) is given as 277.2%. Also, in the experiment on mu opiate receptor (MOR) (0.1 μM compound relative to DAMGO), the “% DAMGO (0.1 μM)” value stood at 161.9%. Moreover, the “MOR agonist activity ([35S]GTPγS binding), FLNA-Binding Compound as Agonist 1 μM” value in the experiment on mu opiate receptor (MOR) (1 μM compound) was 319.0%. Further, in the experiment on mu opiate receptor (MOR) (1 μM compound + 1 μM β-funaltrexamine), the “MOR agonist activity ([35S]GTPγS binding), FLNA-Binding Compound as Agonist 1 μM + BFNA” value is reported as 190.3%. Further, the “% DAMGO + BFNA” value in the experiment on mu opiate receptor (MOR) (1 μM compound + BFNA relative to DAMGO + BFNA) is given as 365.3%. Moreover, the “% DAMGO (1 μM)” value with mu opiate receptor (MOR) (1 μM compound relative to DAMGO) was found to be 119.5%.

For `COc1ccc(C(=O)CC2c3c(cc4c(c3OC)OCO4)CC[N+]2(C)C)cc1C` (stereo not drawn) [Compound B0021], in experiment [1] (setting [2]), the inhibition at 0.01 µM was 32.5%. Moreover, the inhibition at 0.1 µM in experiment [1] (setting [3]) came out at 43.1%. Further, in experiment [1] (setting [4]), the inhibition at 1 µM came to 47.6%. Also, in the experiment with mu opiate receptor (MOR) (setting [5]), the “% DAMGO (0.1 μM)” value was 75.9%. The “MOR agonist activity, percent” value with mu opiate receptor (MOR) (setting [6]) amounted to 126.9%; in the experiment with mu opiate receptor (MOR) (setting [7]), 42.9%; with mu opiate receptor (MOR) (setting [10]), 256.4%. Besides, in the experiment on mu opiate receptor (MOR) (setting [8]), the “% DAMGO + BFNA” value is 123.6%. The “% DAMGO (1 μM)” value in the experiment on mu opiate receptor (MOR) (setting [9]) is 104.7%.

On to `C=CCN1CCC2(CC1)OCCN2S(=O)(=O)c1ccc(OC)cc1` [Compound C0091M], for which the inhibition at 0.01 µM in experiment [1] (setting [2]) was found to be 38.1%. The inhibition at 0.1 µM in experiment [1] (setting [3]) came out at 39.8%. For the same compound, the inhibition at 1 µM in experiment [1] (setting [4]) was 46.3%. Further, the “% DAMGO (0.1 μM)” value in the experiment with mu opiate receptor (MOR) (Series C-2, 0.1 μM compound, relative to DAMGO) is reported as 118.1%. For the same compound, the “MOR agonist activity, percent” value in the experiment on mu opiate receptor (MOR) (Series C-2, 0.1 μM compound, [35S]GTPγS binding to Gαo, striatal membranes) is listed as 207.9%; with mu opiate receptor (MOR) (Series C-2, 1 μM compound + 1 μM β-FNA), 80.8%; in the experiment with mu opiate receptor (MOR) (Series C-2, 1 μM compound, [35S]GTPγS binding to Gαo, striatal membranes) it was 274.4%. In addition, in the experiment with mu opiate receptor (MOR) (Series C-2, 1 μM compound + β-FNA, relative to DAMGO + BFNA), the “% DAMGO + BFNA” value is 367.3%. Moreover, the “% DAMGO (1 μM)” value with mu opiate receptor (MOR) (Series C-2, 1 μM compound, relative to DAMGO) was determined as 108.5%.
